Test [1] addresses T1, CDK2/CycE (Homo sapiens, UniProt P24941).
T1 construct: GST; purchased ProQinase GmbH (Freiburg, Germany); host or cells: insect cells (Sf9)
Put plainly: CDK2/CycE kinase assay (Method 2a, TR-FRET). In kind it is biochemical. The conditions noted are these: 10 μM ATP. From the text: 2a. CDK2/CycE kinase assay:
CDK2/CycE-Inhibitory Activity of Compounds of the Present Invention was Quantified Employing the CDK2/CycE TR-FRET Assay as Described in the Following Paragraphs:
Recombinant fusion proteins of GST and human CDK2 and of GST and human CycE, expressed in insect cells (Sf9) and purified by Glutathion-Sepharose affinity chromatography, were purchased from ProQinase GmbH (Freiburg, Germany). As substrate for the kinase reaction biotinylated peptide biotin-Ttds-YISPLKSPYKISEG (C-terminus in amid form) was used which can be purchased e.g. form the company JERINI Peptide Technologies (Berlin, Germany).
For the assay 50 nl of a 100 fold concentrated solution of the test compound in DMSO was pipetted into a black low volume 384 well microtiter plate (Greiner Bio-One, Frickenhausen, Germany), 2 yl of a solution of CDK2/CycE in aqueous assay buffer [50 mM Tris/HCl pH 8.0, 10 mM MgCl2, 1.0 mM dithiothreitol, 0.1 mM sodium ortho-vanadate, 0.01% (v/v) Nonidet-P40 (Sigma)] were added and the mixture was incubated for 15 min at 22° C. to allow pre-binding of the test compounds to the enzyme before the start of the kinase reaction. […] The concentration of CDK2/CycE was adjusted depending of the activity of the enzyme lot and was chosen appropriate to have the assay in the linear range, typical concentrations were in the range of 130 ng/mL. The reaction was stopped by the addition of 5 yl of a solution of TR-FRET detection reagents (0.2 μM streptavidine-XL665 [Cisbio Bioassays, Codolet, France] and 1 nM anti-RB(pSer807/pSer811)-antibody from BD Pharmingen [#558389] and 1.2 nM LANCE EU-W1024 labeled anti-mouse IgG antibody [Perkin-Elmer, product no. AD0077]) in an aqueous EDTA-solution (100 mM EDTA, 0.2% (w/v) bovine serum albumin in 100 mM HEPES/NaOH pH 7.0).
The resulting mixture was incubated 1 h at 22° C. to allow the formation of complex between the phosphorylated biotinylated peptide and the detection reagents. Subsequently the amount of phosphorylated substrate was evaluated by measurement of the resonance energy transfer from the Eu-chelate to the streptavidine-XL. Therefore, the fluorescence emissions at 620 nm and 665 nm after excitation at 350 nm was measured in a TR-FRET reader, e.g. a Rubystar (BMG Labtechnologies, Offenburg, Germany) or a Viewlux (Perkin-Elmer). The ratio of the emissions at 665 nm and at […] was taken as the measure for the amount of phosphorylated substrate. The data were normalised (enzyme reaction without inhibitor=0% inhibition, all other assay components but no enzyme=100% inhibition).
In general terms: TR-FRET usually uses a lanthanide donor and a delayed reading to cut background.

In test [2] the test system is NCI-H460 cells. Kind of test: Proliferation assay NCI-H460 (Method 3). In kind it is cell-based, human. The conditions noted are these: NCI-H460, 4 days, crystal violet, read-out: Inhibition of NCI-H460 cell proliferation IC50. Here is the method: (§1) Cultivated tumour cells (HeLa, human cervical tumour cells, ATCC CCL-2; NCI-H460, human non-small cell lung carcinoma cells, ATCC HTB-177; A2780, human ovarian carcinoma cells, ECACC #93112519; DU 145, hormone-independent human prostate carcinoma cells, ATCC HTB-81; HeLa-MaTu-ADR, multidrug-resistant human cervical carcinoma cells, EPO-GmbH Berlin; Caco-2, human colorectal carcinoma cells, ATCC HTB-37; B16F10, mouse melanoma cells, ATCC CRL-6475) were plated at a density of 5,000 cells/well (DU145, HeLa-MaTu-ADR), 3,000 cells/well (NCI-H460, HeLa), 2,500 cells/well (A2780), 1,500 cells/well (Caco-2), or 1,000 cells/well (B16F10) in a 96-well multititer plate in 200 μL of their respective growth medium supplemented 10% fetal calf serum. After 24 hours, the cells of one plate (zero-point plate) were stained with crystal violet (see below), while the medium of the other plates was replaced by fresh culture medium (200 μl), to which the test substances were added in various concentrations (0 μM, as well as in the range of 0.001-10 μM; the final concentration of the solvent dimethyl sulfoxide was 0.5%). The cells were incubated for 4 days in the presence of test substances. Cell proliferation was determined by staining the cells with crystal violet: the cells were fixed by adding 20 μl/measuring point of an 11% glutaric aldehyde solution for 15 minutes at room temperature. After three washing cycles of the fixed cells with water, the plates were dried at room temperature. The cells were stained by adding 100 μl/measuring point of a 0.1% crystal violet solution (pH 3.0). After three washing cycles of the stained cells with water, the plates were dried at room temperature. The dye was dissolved by adding 100 μl/measuring point of a 10% acetic acid solution. The extinction was determined by photometry at a wavelength of 595 nm. The change of cell number, in percent, was calculated by normalization of the measured values to the extinction values of the zero-point plate (=0%) and the extinction of the untreated (0 μm) cells (=100%). The IC50 values (inhibitory concentration at 50% of maximal effect) were determined by means of a 4 parameter fit.

Test [3] deals with Caco-2 cells. Kind of test: Proliferation assay Caco-2 (Method 3). In kind it is cell-based, human. Particulars: Caco-2, 4 days, crystal violet, read-out: Inhibition of Caco-2 cell proliferation IC50. The protocol: as §1
The subject of test [4] is B16F10 cells. Kind of test: Proliferation assay B16F10 (Method 3). In kind it is cell-based, mouse. Particulars: 4 days, crystal violet, read-out: Inhibition of Bc6F10 cell proliferation IC50. Here is the method: as §1
Test [5] relates to A2780 cells. Kind of test: Proliferation assay A2780 (Method 3). In kind it is cell-based, human. The conditions noted are these: A2780, 4 days, crystal violet, read-out: Inhibition of A2780 cell proliferation IC50. Here is the method: as §1

Structures are written as SMILES. Like-named read-outs stand apart in the source and are kept apart here.

Consider `CS(=O)(Cc1cccc(Nc2ncc(F)c(-c3ccc(F)c4ccoc34)n2)c1)=NC#N` (racemic) [Example 1, (rac)-[(3-{[5-Fluoro-4-(4-fluoro-1-benzofuran-7-yl)pyrimidin-2-yl]amino}benzyl)(methyl)oxido-λ^6-sulfanylidene]cyanamide], for which the IC50 in test [1] was determined as 0.075 µM; in test [2] (Homo sapiens, NCI-H460, 96 h), 0.189 µM; in test [3] (Homo sapiens, Caco-2, 96 h), 0.11 µM; in test [4] (Mus musculus, B16-F10, 96 h), 0.17 µM; in test [5] (Homo sapiens, A2780, 96 h), 0.046 µM.
`CS(=N)(=O)Cc1cccc(Nc2ncc(F)c(-c3ccc(F)c4ccoc34)n2)c1` (racemic) [Example 4, (rac)-5-Fluoro-4-(4-fluoro-1-benzofuran-7-yl)-N-{3-[(S-methylsulfonimidoyl)-methyl]phenyl}-pyrimidin-2-amine]: the IC50 in test [1] was determined as 0.11 µM; in test [2] (Homo sapiens, NCI-H460, 96 h), 0.181 µM; in test [3] (Homo sapiens, Caco-2, 96 h) it was 0.141 µM; in test [4] (Mus musculus, B16-F10, 96 h), 0.211 µM; in test [5] (Homo sapiens, A2780, 96 h) it was 0.053 µM.
Consider `CS(=O)(Cc1cc(F)cc(Nc2ncc(F)c(-c3ccc(F)c4ccoc34)n2)c1)=NC#N` (racemic) [Example 7, (rac)-[(3-Fluoro-5-{[5-fluoro-4-(4-fluoro-1-benzofuran-7-yl)pyrimidin-2-yl]amino}benzyl)(methyl)-oxido-λ^6-sulfanylidene]cyanamide], for which the IC50 in test [1] amounted to 0.056 µM; in test [2] (Homo sapiens, NCI-H460, 96 h) it was 0.104 µM; in test [3] (Homo sapiens, Caco-2, 96 h), 0.075 µM; in test [4] (Mus musculus, B16-F10, 96 h) it was 0.064 µM; in test [5] (Homo sapiens, A2780, 96 h), 0.023 µM.
The like results for `CS(=N)(=O)Cc1cc(F)cc(Nc2ncc(F)c(-c3ccc(F)c4ccoc34)n2)c1` (racemic) [Example 10, (rac)-5-Fluoro-4-(4-fluoro-1-benzofuran-7-yl)-N-{3-fluoro-5-[(S-methylsulfonimidoyl)-methyl]-phenyl}-pyrimidin-2-amine] were, in that order, 0.05 µM, 0.112 µM, 0.104 µM, 0.058 µM and 0.037 µM.
With `Cc1cc(CS(C)(=O)=NC#N)cc(Nc2ncc(F)c(-c3ccc(F)c4ccoc34)n2)c1` (racemic) [Example 13, (rac)-[(3-{[5-Fluoro-4-(4-fluoro-1-benzofuran-7-yl)pyrimidin-2-yl]amino}-5-methylbenzyl)-(methyl)oxido-λ^6-sulfanylidene]cyanamide], the IC50 in test [1] was 0.041 µM; in test [2] (Homo sapiens, NCI-H460, 96 h), 0.118 µM; in test [3] (Homo sapiens, Caco-2, 96 h), 0.04 µM; in test [4] (Mus musculus, B16-F10, 96 h), 0.049 µM; in test [5] (Homo sapiens, A2780, 96 h), 0.034 µM.
The like results for `Cc1cc(CS(C)(=N)=O)cc(Nc2ncc(F)c(-c3ccc(F)c4ccoc34)n2)c1` (racemic) [Example 16, (rac)-5-Fluoro-4-(4-fluoro-1-benzofuran-7-yl)-N-{3-methyl-5-[(S-methylsulfonimidoyl)-methyl]phenyl}pyrimidin-2-amine] were, in that order, 0.08 µM, 0.12 µM, 0.06 µM, 0.082 µM and 0.035 µM.
In the case of `CS(=O)(Cc1cc(Nc2ncc(F)c(-c3ccc(F)c4ccoc34)n2)cc(S(F)(F)(F)(F)F)c1)=NC#N` (racemic) [Example 17, (rac)-{[3-{[5-fluoro-4-(4-fluoro-1-benzofuran-7-yl)pyrimidin-2-yl]amino}-5-(pentafluoro-λ^6-sulfanyl)benzyl](methyl)oxido-λ^6-sulfanylidene}cyanamide], the IC50 is 0.257 µM in test [1]; 0.192 µM in test [2] (Homo sapiens, NCI-H460, 96 h); 0.111 µM in test [3] (Homo sapiens, Caco-2, 96 h); 0.118 µM in test [4] (Mus musculus, B16-F10, 96 h); 0.098 µM in test [5] (Homo sapiens, A2780, 96 h).
Turning to `CS(=N)(=O)Cc1cc(Nc2ncc(F)c(-c3ccc(F)c4ccoc34)n2)cc(S(F)(F)(F)(F)F)c1` (racemic) [Example 18, (rac)-5-Fluoro-4-(4-fluoro-1-benzofuran-7-yl)-N-{3-[(S-methylsulfonimidoyl)methyl]-5-(pentafluoro-λ^6-sulfanyl)phenyl}pyrimidin-2-amine], the IC50 amounted to 0.073 µM in test [1]; 0.136 µM in test [2] (Homo sapiens, NCI-H460, 96 h); 0.152 µM in test [3] (Homo sapiens, Caco-2, 96 h); 0.168 µM in test [4] (Mus musculus, B16-F10, 96 h); 0.034 µM in test [5] (Homo sapiens, A2780, 96 h).
Take `CS(=O)(Cc1cccc(Nc2ncc(F)c(-c3ccc(F)c4ccoc34)n2)c1)=NC#N` (single isomer, unassigned) [Example 2, [(3-{[5-Fluoro-4-(4-fluoro-1-benzofuran-7-yl)pyrimidin-2-yl]amino}benzyl)(methyl)oxido-λ^6-sulfanylidene]cyanamide]: the IC50 amounted to 0.019 µM in test [1]; 0.117 µM in test [2]; 0.087 µM in test [3]; 0.075 µM in test [4]; 0.055 µM in test [5].
On to `CS(=O)(Cc1cccc(Nc2ncc(F)c(-c3ccc(F)c4ccoc34)n2)c1)=NC#N` (single isomer, unassigned) [Example 3, [(3-{[5-Fluoro-4-(4-fluoro-1-benzofuran-7-yl)pyrimidin-2-yl]amino}benzyl)(methyl)oxido-λ^6-sulfanylidene]cyanamide], for which the IC50 in test [1] is 0.045 µM; in test [2] (Homo sapiens, NCI-H460, 96 h) it was 0.188 µM; in test [3] (Homo sapiens, Caco-2, 96 h) it was 0.144 µM; in test [4] (Mus musculus, B16-F10, 96 h) it was 0.136 µM; in test [5] (Homo sapiens, A2780, 96 h), 0.067 µM.
Turning to `CS(=N)(=O)Cc1cccc(Nc2ncc(F)c(-c3ccc(F)c4ccoc34)n2)c1` (single isomer, unassigned) [Example 5, 5-Fluoro-4-(4-fluoro-1-benzofuran-7-yl)-N-{3-[(S-methylsulfonimidoyl)-methyl]-phenyl}-pyrimidin-2-amine], the IC50 stood at 0.089 µM in test [1]; 0.343 µM in test [2] (Homo sapiens, NCI-H460, 96 h); 0.23 µM in test [3]; 0.26 µM in test [4] (Mus musculus, B16-F10, 96 h); 0.093 µM in test [5].

Source of the values: US9884849B2, “Fluorinated benzofuranyl-pyrimidine derivatives containing a sulfoximine group” (Bayer Pharma Aktiengesellschaft, priority 2014, dated 2018).
